Reference: article PMC9055273 (RSC Advances, 2020)

Tested on: bacteria
Conditions: 10 μM

c1ccncc1 [pyridine]
Inhibition of bacterial growth: did not obviously inhibit bacterial growth
